Experimental data reported in US11571421B2, “GABAA positive allosteric modulator compounds for treatment of itch and/or dermatitis” (NeuroCycle Therapeutics, Inc., priority 2018, dated 2023).
Where “and” joins values, the source holds several entries; their conditions need not be identical. Equal entries are not always repeated.

Tests used:
[1] = test system: Chloroquine (CQ)-Induced Itch Model in Male C57BL/6 Mice; assay: Chloroquine Induced Itch Model, PF-06372865 (Example 1); format: in vivo
Experimental: PF-06372865 was evaluated as an antipruritic and/or antidermatitis agent using a Chloroquine Induced Itch Model in male C57BL/6 mice.
Male C57BL/6 Mice (8-10 weeks) were used in the study. Animals were procured from CRL, Hylasco (CPSCEA registered animal supplier).
Mice were housed one per cage and maintained at controlled environmental conditions with 12-h light and dark cycles. The temperature and humidity of the room were maintained between 22±3° C. and 55±5%, respectively. The maximum and minimum temperature and relative humidity in the experimental rooms were recorded once daily. […]
PF-06372865 was weighed into a clean mortar. Liquefied Solutol (i.e., Polyoxyl 15 Hydroxystearate) was added drop wise and triturated using a pestle for 2-3 minutes, then Glycerol formal was added and mixed in same fashion. The volume was made up by slowly adding the required volume of water. The resulting mixture was mixed well using mild vortexing to provide a homogeneous suspension. (Details in below chart)
27 mg of chloroquine phosphate was weighed in a clean glass container. 6 mL PBS was added, and the resulting mixture was mixed well using mild vortexing to form the desired strength solution.
The right-side cheek area of all the animals was shaved with animal clippers 1 day prior to the experiment. Animals were randomized into different treatment groups (n=9/group) based on body weight to avoid variability in weights across groups. NCT10004 Phosphate and PF-06372865 formulations and chloroquine phosphate solution were prepared on the day of the experiment.
Animals were dosed per oral with respective treatment group using a dose volume of 10 ml/kg. Times of dosing were recorded. Immediately after compound treatment, animals were kept in an empty transparent chamber (23 cm length×17 cm width) for acclimatization and observation.
Ninety (90) minutes post compound dosing, 50-μl of chloroquine phosphate solution (a 200-μg dose) was injected intracutaneously into the animal's right cheek. Animals were returned to the same chamber for observation. Animals were observed by an observer blind to the treatment group for a period of 30 minutes post chloroquine injection. Total number of bouts of scratching directed at the ipsilateral cheek were recorded for 30 minutes.

[2] = test system: Male C57BL/6 Mice; assay: Sedative effects, open field arena activity (Example 4); format: in vivo; details: per oral 1, 3, 10, 30 and 100 mg/kg; recorded for one hour starting one hour after injection
Experimental: In order to exclude any sedative effects PF-06372865 might have on mice, a dose-response experiment is included. The mice receive per oral injections of PF-06372865 in varying doses (vehicle, 1, 3, 10, 30 and 100 mg/kg). After injection, the mice are placed in an open field arena and their activity is recorded for one hour starting one hour after injection.

[3] = 0.3 mg/kg PO, individual animals
[4] = 10 mg/kg PO, individual animals
[5] = 30 mg/kg PO, individual animals

With CCn1cnc2c(-c3ccc(F)c(-c4ccc(S(=O)(=O)CC)cc4OC)c3)cnnc21 [PF-06372865] the “Scratching bouts (Nos.) in 30 min, 0-5 min” value (“Scratching bouts … 0-5 min” for short) ([1]; 0.3 mg/kg PO, MEAN, N=9) was 2.22 Nos, the “Scratching bouts (Nos.) in 30 min, 5-10 min” value (“Scratching bouts … 5-10 min” below) ([1]; 0.3 mg/kg PO, MEAN, N=9) was 6.67 Nos and the “Scratching bouts (Nos.) in 30 min, 10-15 min” value (“Scratching bouts … 10-15 min” below) ([1]; 0.3 mg/kg PO, MEAN, N=9) was 26.22 Nos. The “Scratching bouts (Nos.) in 30 min, 15-20 min” value (“Scratching bouts … 15-20 min” for short) ([1]; 0.3 mg/kg PO, MEAN, N=9) was 24.67 Nos, the “Scratching bouts (Nos.) in 30 min, 20-25 min” value (from here on “Scratching bouts … 20-25 min”) ([1]; 0.3 mg/kg PO, MEAN, N=9) was 21.00 Nos and the “Scratching bouts (Nos.) in 30 min, 25-30 min” value (from here on “Scratching bouts … 25-30 min”) ([1]; 0.3 mg/kg PO, MEAN, N=9) was 0.00 Nos. For the same compound, the “Total Scratching bouts” value ([1]; 0.3 mg/kg PO, MEAN, N=9) was 80.78 Nos./30 min, the “Scratching bouts … 0-5 min” value [1, 3] was 0 Nos. (6×) and 1 Nos. and 15 Nos. and 4 Nos and the “Scratching bouts … 5-10 min” value [1, 3] was 56 Nos. and 0 Nos. (6×) and 1 Nos. and 3 Nos. For the same compound, the “Scratching bouts … 10-15 min” value [1, 3] was 47 Nos. and 0 Nos. (3×) and 19 Nos. and 46 Nos. and 76 Nos. and 21 Nos. and 27 Nos, the “Scratching bouts … 15-20 min” value [1, 3] was 10 Nos. and 25 Nos. (2×) and 39 Nos. and 13 Nos. and 36 Nos. and 31 Nos. and 11 Nos. and 32 Nos and the “Scratching bouts … 20-25 min” value [1, 3] was 0 Nos. (3×) and 49 Nos. and 33 Nos. and 27 Nos. (2×) and 24 Nos. and 29 Nos. For the same compound, the “Scratching bouts … 25-30 min” value [1, 3] was 0 Nos, the “Total Scratching bouts” value [1, 3] was 113 Nos./30 min and 74 Nos./30 min and 25 Nos./30 min and 72 Nos./30 min and 33 Nos./30 min and 110 Nos./30 min and 149 Nos./30 min and 56 Nos./30 min and 95 Nos./30 min and the “Scratching bouts … 0-5 min” value ([1]; 1 mg/kg PO, MEAN, N=9) was 1.22 Nos. The “Scratching bouts … 5-10 min” value ([1]; 1 mg/kg PO, MEAN, N=9) was 20.56 Nos, the “Scratching bouts … 10-15 min” value ([1]; 1 mg/kg PO, MEAN, N=9) was 9.11 Nos and the “Scratching bouts … 15-20 min” value ([1]; 1 mg/kg PO, MEAN, N=9) was 23.11 Nos. For the same compound, the “Scratching bouts … 20-25 min” value ([1]; 1 mg/kg PO, MEAN, N=9) was 8.33 Nos, the “Scratching bouts … 25-30 min” value ([1]; 1 mg/kg PO, MEAN, N=9) was 8.11 Nos and the “Total Scratching bouts” value ([1]; 1 mg/kg PO, MEAN, N=9) was 70.44 Nos./30 min. For the same compound, the “Scratching bouts … 0-5 min” value ([1]; 1 mg/kg PO, individual animals) was 0 Nos. (6×) and 1 Nos. and 8 Nos. and 2 Nos, the “Scratching bouts … 5-10 min” value ([1]; 1 mg/kg PO, individual animals) was 22 Nos. and 0 Nos. (2×) and 18 Nos. (2×) and 13 Nos. and 62 Nos. and 49 Nos. and 3 Nos and the “Scratching bouts … 10-15 min” value ([1]; 1 mg/kg PO, individual animals) was 9 Nos. (2×) and 0 Nos. (3×) and 13 Nos. and 1 Nos. and 4 Nos. and 46 Nos. The “Scratching bouts … 15-20 min” value ([1]; 1 mg/kg PO, individual animals) was 41 Nos. and 14 Nos. and 28 Nos. (2×) and 16 Nos. and 45 Nos. and 25 Nos. and 11 Nos. and 0 Nos, the “Scratching bouts … 20-25 min” value ([1]; 1 mg/kg PO, individual animals) was 28 Nos. and 0 Nos. (5×) and 18 Nos. and 8 Nos. and 21 Nos and the “Scratching bouts … 25-30 min” value ([1]; 1 mg/kg PO, individual animals) was 6 Nos. and 25 Nos. and 4 Nos. and 0 Nos. (4×) and 14 Nos. and 24 Nos. The “Total Scratching bouts” value ([1]; 1 mg/kg PO, individual animals) was 106 Nos./30 min and 39 Nos./30 min and 81 Nos./30 min and 26 Nos./30 min and 93 Nos./30 min and 95 Nos./30 min and 71 Nos./30 min and 22 Nos./30 min and 101 Nos./30 min, the “Scratching bouts … 0-5 min” value ([1]; 3 mg/kg PO, MEAN, N=9) was 4.89 Nos and the “Scratching bouts … 5-10 min” value ([1]; 3 mg/kg PO, MEAN, N=9) was 3.89 Nos. The “Scratching bouts … 10-15 min” value ([1]; 3 mg/kg PO, MEAN, N=9) was 11.44 Nos, the “Scratching bouts … 15-20 min” value ([1]; 3 mg/kg PO, MEAN, N=9) was 9.89 Nos and the “Scratching bouts … 20-25 min” value ([1]; 3 mg/kg PO, MEAN, N=9) was 4.33 Nos. The “Scratching bouts … 25-30 min” value ([1]; 3 mg/kg PO, MEAN, N=9) was 3.44 Nos, the “Total Scratching bouts” value ([1]; 3 mg/kg PO, MEAN, N=9) was 37.89 Nos./30 min and the “Scratching bouts … 0-5 min” value ([1]; 3 mg/kg PO, individual animals) was 16 Nos. and 0 Nos. (4×) and 19 Nos. and 1 Nos. and 3 Nos. and 5 Nos. The “Scratching bouts … 5-10 min” value ([1]; 3 mg/kg PO, individual animals) was 0 Nos. (7×) and 33 Nos. and 2 Nos, the “Scratching bouts … 10-15 min” value ([1]; 3 mg/kg PO, individual animals) was 44 Nos. and 4 Nos. and 0 Nos. (4×) and 10 Nos. and 16 Nos. and 29 Nos and the “Scratching bouts … 15-20 min” value ([1]; 3 mg/kg PO, individual animals) was 17 Nos. and 14 Nos. and 33 Nos. and 0 Nos. (4×) and 3 Nos. and 22 Nos. For the same compound, the “Scratching bouts … 20-25 min” value ([1]; 3 mg/kg PO, individual animals) was 13 Nos. and 0 Nos. (5×) and 14 Nos. and 3 Nos. and 9 Nos, the “Scratching bouts … 25-30 min” value ([1]; 3 mg/kg PO, individual animals) was 9 Nos. and 0 Nos. (5×) and 3 Nos. and 15 Nos. and 4 Nos and the “Total Scratching bouts” value ([1]; 3 mg/kg PO, individual animals) was 99 Nos./30 min and 18 Nos./30 min and 66 Nos./30 min and 29 Nos./30 min and 24 Nos./30 min and 59 Nos./30 min and 3 Nos./30 min and 12 Nos./30 min and 31 Nos./30 min. The “Scratching bouts … 0-5 min” value ([1]; 10 mg/kg PO, MEAN, N=9) was 0.00 Nos, the “Scratching bouts … 5-10 min” value ([1]; 10 mg/kg PO, MEAN, N=9) was 0.00 Nos and the “Scratching bouts … 10-15 min” value ([1]; 10 mg/kg PO, MEAN, N=9) was 7.33 Nos. The “Scratching bouts … 15-20 min” value ([1]; 10 mg/kg PO, MEAN, N=9) was 4.11 Nos, the “Scratching bouts … 20-25 min” value ([1]; 10 mg/kg PO, MEAN, N=9) was 2.78 Nos and the “Scratching bouts … 25-30 min” value ([1]; 10 mg/kg PO, MEAN, N=9) was 1.11 Nos. The “Total Scratching bouts” value ([1]; 10 mg/kg PO, MEAN, N=9) was 15.33 Nos./30 min, the “Scratching bouts … 0-5 min” value [1, 4] was 0 Nos and the “Scratching bouts … 5-10 min” value [1, 4] was 0 Nos. For the same compound, the “Scratching bouts … 10-15 min” value [1, 4] was 0 Nos. (7×) and 33 Nos. (2×), the “Scratching bouts … 15-20 min” value [1, 4] was 0 Nos. (6×) and 8 Nos. and 3 Nos. and 26 Nos and the “Scratching bouts … 20-25 min” value [1, 4] was 0 Nos. (6×) and 12 Nos. and 9 Nos. and 4 Nos. The “Scratching bouts … 25-30 min” value [1, 4] was 2 Nos. (2×) and 0 Nos. (6×) and 6 Nos, the “Total Scratching bouts” value [1, 4] was 2 Nos./30 min and 14 Nos./30 min and 41 Nos./30 min and 33 Nos./30 min and 0 Nos./30 min (2×) and 15 Nos./30 min and 3 Nos./30 min and 30 Nos./30 min and the “Scratching bouts … 0-5 min” value ([1]; 30 mg/kg PO, MEAN, N=9) was 0.00 Nos. The “Scratching bouts … 5-10 min” value ([1]; 30 mg/kg PO, MEAN, N=9) was 0.00 Nos, the “Scratching bouts … 10-15 min” value ([1]; 30 mg/kg PO, MEAN, N=9) was 0.00 Nos and the “Scratching bouts … 15-20 min” value ([1]; 30 mg/kg PO, MEAN, N=9) was 0.00 Nos. For the same compound, the “Scratching bouts … 20-25 min” value ([1]; 30 mg/kg PO, MEAN, N=9) was 0.00 Nos, the “Scratching bouts … 25-30 min” value ([1]; 30 mg/kg PO, MEAN, N=9) was 0.00 Nos and the “Total Scratching bouts” value ([1]; 30 mg/kg PO, MEAN, N=9) was 0.00 Nos./30 min. For the same compound, the “Scratching bouts … 0-5 min” value [1, 5] was 0 Nos, the “Scratching bouts … 5-10 min” value [1, 5] was 0 Nos and the “Scratching bouts … 10-15 min” value [1, 5] was 0 Nos. The “Scratching bouts … 15-20 min” value [1, 5] was 0 Nos, the “Scratching bouts … 20-25 min” value [1, 5] was 0 Nos and the “Scratching bouts … 25-30 min” value [1, 5] was 0 Nos. For the same compound, the “Total Scratching bouts” value [1, 5] was 0 Nos./30 min, the “scratching bouts compared to vehicle treatment, significance” value ([1]; at 0.3, 1, 3, 10 and 30 mg/kg doses) was “Statistically significant decrease” and the “total number of scratching bouts, dose response” value ([1]; quantified for 30 minutes post CQ injection, 0.3-30 mg/kg PO) was “dose dependent decrease”. For the same compound, the “open field activity compared to vehicle” value [2] was “significant increase in activity”.
